Data set [1] has as its target T1, Delta-type opioid receptor (Mus musculus, UniProt P32300). Description: Antagonist activity at mouse delta opioid receptor-1 expressed in CHO cell membranes assessed as inhibition of DPDPE-induced [35S]GTPgammaS binding incubated for 60 mins by scintillation spectroscopic analysis. In kind it is functional. In general terms: Binding of GTPγS marks nucleotide exchange on a G protein.

For data set [2], the system named is Mus musculus. Kind of data set: Antinociceptive activity in sc dosed CD-1 mouse assessed as increase in reaction time measured 15 mins post dose by radiant heat tail flick assay. It counts as functional. The note with it: CD-1, sc, 0.25 h. A general note: In hot-plate and tail-flick tests a longer latency is read as antinociception.
The target in data set [3] is T2, Mu-type opioid receptor (Mus musculus, UniProt P42866). Kind of data set: Displacement of [125I]-IBNtxA from mouse mu opioid receptor-1 expressed in CHO cell membranes incubated for 90 mins.
T2 sequence (P42866 whole entry): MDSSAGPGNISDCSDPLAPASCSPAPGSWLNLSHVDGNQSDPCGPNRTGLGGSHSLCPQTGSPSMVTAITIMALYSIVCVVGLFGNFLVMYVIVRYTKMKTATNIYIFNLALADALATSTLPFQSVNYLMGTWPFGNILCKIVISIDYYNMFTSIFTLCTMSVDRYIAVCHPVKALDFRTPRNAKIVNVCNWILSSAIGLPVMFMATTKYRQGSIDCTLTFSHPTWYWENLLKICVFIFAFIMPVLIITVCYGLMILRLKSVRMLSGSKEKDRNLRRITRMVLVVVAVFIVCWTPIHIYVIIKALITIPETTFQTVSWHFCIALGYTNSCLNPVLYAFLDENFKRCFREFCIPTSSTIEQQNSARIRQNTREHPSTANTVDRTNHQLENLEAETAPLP
Data set [4] has as its target T2, Mu-type opioid receptor. Kind of data set: Agonist activity at mouse mu opioid receptor-1 expressed in CHO cell membranes assessed as [35S]GTPgammaS binding incubated for 60 mins by scintillation spectroscopic analysis. It counts as functional.
For data set [5], the target named is T3, Mu-type opioid receptor (Homo sapiens, UniProt P35372). Description: Activation of mu opioid receptor-1 (unknown origin) expressed in CHO cells assessed as beta-arrestin-2 recruitment at 10 uM after 90 mins by beta-galactosidase complementation assay. It counts as cell-based. The following applies: 1.5 h.
T3 sequence (P35372 whole entry): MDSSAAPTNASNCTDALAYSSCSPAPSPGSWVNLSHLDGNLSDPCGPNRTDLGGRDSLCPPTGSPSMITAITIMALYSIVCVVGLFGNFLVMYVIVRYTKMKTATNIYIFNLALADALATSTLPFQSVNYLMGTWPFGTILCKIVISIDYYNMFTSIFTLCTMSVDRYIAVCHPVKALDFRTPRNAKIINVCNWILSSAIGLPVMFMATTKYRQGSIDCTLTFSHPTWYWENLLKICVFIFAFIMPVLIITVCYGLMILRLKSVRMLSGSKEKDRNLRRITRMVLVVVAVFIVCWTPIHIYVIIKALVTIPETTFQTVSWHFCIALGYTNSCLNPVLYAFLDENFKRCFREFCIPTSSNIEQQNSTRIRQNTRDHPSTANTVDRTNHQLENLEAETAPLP
Data set [6] has as its target T1, Delta-type opioid receptor. Kind of data set: Displacement of [125I]-IBNtxA from mouse delta opioid receptor-1 expressed in CHO cell membranes incubated for 90 mins. For orientation: Displacement assays read how much labelled ligand stays bound in the presence of the test substance.
The target in data set [7] is Mu-type opioid receptor (Mus musculus) (UniProt P42866). Description: Agonist activity at mouse mu opioid receptor-1 expressed in CHO cell membranes assessed as [35S]GTPgammaS binding incubated for 60 mins by scintillation spectroscopic analysis relative to DAMGO. In kind it is functional.
Chain of Mu-type opioid receptor (Mus musculus) (P42866 whole entry): as the sequence (P42866 whole entry) above
For data set [8], the target named is T4, Kappa-type opioid receptor (Mus musculus, UniProt P33534). Description: Antagonist activity at mouse kappa opioid receptor-1 expressed in CHO cell membranes assessed as inhibition of U50,488H-induced [35S]GTPgammaS binding incubated for 60 mins by scintillation spectroscopic analysis. It counts as functional.
T4 sequence (P33534 whole entry): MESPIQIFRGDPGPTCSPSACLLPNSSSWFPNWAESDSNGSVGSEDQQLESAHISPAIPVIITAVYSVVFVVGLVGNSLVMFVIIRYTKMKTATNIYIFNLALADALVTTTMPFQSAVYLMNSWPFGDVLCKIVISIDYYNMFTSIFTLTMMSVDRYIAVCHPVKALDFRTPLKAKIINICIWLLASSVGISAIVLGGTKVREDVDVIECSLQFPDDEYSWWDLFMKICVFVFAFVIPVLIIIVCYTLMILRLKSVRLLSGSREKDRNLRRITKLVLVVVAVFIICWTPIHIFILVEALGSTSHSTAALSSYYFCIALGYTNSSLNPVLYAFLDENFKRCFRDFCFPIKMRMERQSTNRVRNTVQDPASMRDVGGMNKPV
Data set [9] addresses T4, Kappa-type opioid receptor. Description: Displacement of [125I]-IBNtxA from mouse kappa opioid receptor-1 expressed in CHO cell membranes incubated for 90 mins.
The target of data set [10] is T1, Delta-type opioid receptor. Kind of data set: Agonist activity at mouse delta opioid receptor-1 expressed in CHO cell membranes assessed as [35S]GTPgammaS binding incubated for 60 mins by scintillation spectroscopic analysis. In kind it is functional.
For data set [11], the target named is Delta-type opioid receptor (Mus musculus) (UniProt P32300). Description: Agonist activity at mouse delta opioid receptor-1 expressed in CHO cell membranes assessed as [35S]GTPgammaS binding incubated for 60 mins by scintillation spectroscopic analysis relative to DPDPE. It counts as functional.
Chain of Delta-type opioid receptor (Mus musculus) (P32300 whole entry): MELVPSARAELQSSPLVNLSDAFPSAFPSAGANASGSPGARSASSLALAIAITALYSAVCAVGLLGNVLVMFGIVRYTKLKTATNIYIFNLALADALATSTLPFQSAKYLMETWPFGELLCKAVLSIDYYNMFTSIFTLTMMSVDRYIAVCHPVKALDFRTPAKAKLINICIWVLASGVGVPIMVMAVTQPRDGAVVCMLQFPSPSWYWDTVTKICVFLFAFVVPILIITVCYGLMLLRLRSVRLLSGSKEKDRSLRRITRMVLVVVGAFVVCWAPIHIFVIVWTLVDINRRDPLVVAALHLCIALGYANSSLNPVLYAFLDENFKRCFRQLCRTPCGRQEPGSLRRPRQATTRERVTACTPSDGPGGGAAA
Data set [12] deals with T3, Mu-type opioid receptor. Kind of data set: Inhibition of DAMGO-induced beta-arrestin-2 recruitment at mu opioid receptor-1 (unknown origin) expressed in CHO cells preincubated for 30 mins followed by DAMGO addition measured after 90 mins by beta-galactosidase complementation assay. It counts as cell-based.
The species entered for data set [13] is Mus musculus. Kind of data set: animal or person. The following applies: CD-1, sc, 0.5 h.
Description: Antinociceptive activity in sc dosed CD-1 mouse assessed as increase in reaction time measured 30 mins post dose by radiant heat tail flick assay
For data set [14], the species on record is Mus musculus. Kind of data set: animal or person. The note with it: CD-1, sc, 0.5 h. This is another data set of the same source.
Description: Antinociceptive activity in sc dosed CD-1 mouse assessed as increase in latency latency to respond with hind paw lick or shake/flutter measured 30 mins post dose by hot plate test
In data set [15] the test system is Mus musculus. Kind of data set: Antinociceptive activity in sc dosed CD-1 mouse assessed as increase in reaction time administered twice daily at dosing intervals of 12 hrs for 5 days by radiant heat tail flick assay. It counts as functional. The note with it: CD-1, sc.
Data set [16] concerns Mus musculus. Kind of data set: Antinociceptive activity in CD-1 mouse assessed as increase in reaction time at 0.75 ug, icv administered on day 6 after MOR1-exon1 antisense oligodeoxynucleotide injection on day 1, 3 and 5 by radiant heat tail flick assay. In kind it is functional, organism-based.
For data set [17], the system named is Mus musculus. Kind of data set: Antinociceptive activity in CD-1 mouse assessed as increase in reaction time at 10 ug, icv administered on day 6 after DOR1-exon3 antisense oligodeoxynucleotide injection on day 1, 3 and 5 by radiant heat tail flick assay. In kind it is functional, organism-based.

The source made the active and inactive calls. The calls are words filed in the database; no cut-off is given here. Some results are limits rather than exact numbers.

T1 sequence (P32300 whole entry): as above

In the case of `CC[C@@H]1CN2CC[C@]3(Nc4cccc(-c5ccoc5)c4C3=O)[C@@H]2C[C@@H]1/C(=C\OC)C(=O)OC`, the IC50 (commonly the concentration at which inhibition is half-maximal) in data set [1] turned out to be 39 nM; in [8], 202 nM. Also, the 50% effective dose (ED50) (commonly the dose at which the effect has come halfway, by size or by number of responders) in the data set on Mus musculus [2] amounted to 1.1 mg/kg. Besides, the figures for the Ki (on Mu-type opioid receptor [3]; in data set [6]; in data set [9]) were 0.94 nM, 1.5 nM and 39 nM, respectively. At Mu-type opioid receptor [4], the half-maximal effective concentration (EC50) (in general, the concentration at which the effect is half-maximal) was found to be 1.5 nM. For the same compound, the Activity entry at Mu-type opioid receptor [5] was “Not Active”. In addition, the maximal response (Emax) (in general, the maximal effect, on the per cent scale that the assay sets) in data set [7] was 100%.
In the case of `CC[C@@H]1CN2CC[C@]3(Nc4cccc(-c5ccccc5)c4C3=O)[C@@H]2C[C@@H]1/C(=C\OC)C(=O)OC`, the ED50 in the data set with Mus musculus [2] was found to be 1 mg/kg. The Ki (as a rule, a measure of affinity in units of concentration, obtained from inhibition or displacement) at Mu-type opioid receptor [3] was 0.91 nM; in data set [6] it was 0.8 nM; in [9], 51 nM. The figures for the EC50 (at Mu-type opioid receptor [4]; in data set [10]) were 1.4 nM and 0.83 nM, respectively. Moreover, the Activity entry on Mu-type opioid receptor [5] was “Not Active”. Moreover, the Emax in data set [11] was 89%; in data set [7] it was 123%. Further, in data set [8], the IC50 was found to be 171 nM.
For `C[C@@H](NC(=O)[C@@H](N)Cc1ccc(O)cc1)C(=O)NCC(=O)N(C)[C@@H](Cc1ccccc1)C(=O)NCCO` [DAMGO], at Mu-type opioid receptor [5], the result was Active.
As to `CC[C@@H]1CN2CC[C@]3(Nc4cccc(C#N)c4C3=O)[C@@H]2C[C@@H]1/C(=C\OC)C(=O)OC`, the IC50 was 73 nM in data set [1] and 721 nM in [8]. In addition, in the data set on Mus musculus [2], the ED50 is 0.32 mg/kg. The Ki is 0.5 nM at Mu-type opioid receptor [3], 2.4 nM in [6] and 47 nM in data set [9]. At Mu-type opioid receptor [4], the 50% effective concentration (EC50) came to 0.7 nM. Further, the Activity result on Mu-type opioid receptor [5] is “Not Active”. Moreover, the maximal effect (Emax) in data set [7] was determined as 122%.
For the compound `CC[C@@H]1CN2CC[C@@]3(O)C(=Nc4cccc(OC)c43)[C@@H]2C[C@@H]1/C(=C\OC)C(=O)OC`, in the data set with Mus musculus [2], the ED50 is 0.46 mg/kg. This compound yielded a Ki on Mu-type opioid receptor [3] of 37 nM. On Mu-type opioid receptor [4], the EC50 is 53 nM. Moreover, the Activity result on Mu-type opioid receptor [5] is “Not Active”. In addition, the inhibition result on Mu-type opioid receptor [12] was “Dose-dependent effect”. Besides, the Emax in [7] was determined as 77%. Also, in [8], the IC50 came to 2520 nM.
As to `CC[C@@H]1CN2CC[C@@]3(C(=O)c4c(OC)cccc4N3C)[C@@H]2C[C@@H]1/C(=C\OC)C(=O)OC`, the Ki on Mu-type opioid receptor [3] was 375 nM; in data set [6] it was over 1000 nM; in data set [9], over 1000 nM.
As for `CC[C@@H]1CN2CC[C@]3(Nc4ccccc4C3=O)[C@@H]2C[C@@H]1/C(=C\OC)C(=O)OC`, the figures for the IC50 in data set [1] and in [8] were 193 nM and 252 nM, respectively. Also, the ED50 in the data set with Mus musculus [2] is 0.24 mg/kg. Moreover, the results for the inhibition constant (Ki) (on Mu-type opioid receptor [3]; in data set [6]; in data set [9]) were 0.46 nM, 2.9 nM and 19 nM, respectively. Also, at Mu-type opioid receptor [4], the EC50 was 1.4 nM. For the same compound, the Activity entry at Mu-type opioid receptor [5] is “Not Active”. For the same compound, the Emax in [7] came out at 116%.
`CC[C@@H]1CN2CC[C@]3(Nc4cccc(OC(C)=O)c4C3=O)[C@@H]2C[C@@H]1/C(=C\OC)C(=O)OC`: the ED50 with Mus musculus [2] was 0.38 mg/kg. Further, the results for the inhibition constant Ki (at Mu-type opioid receptor [3]; in data set [6]; in data set [9]) were 2.5 nM, 20 nM and 31 nM, respectively. At Mu-type opioid receptor [4], the EC50 stood at 3.9 nM. Also, the Emax in data set [7] stood at 120%.
Turning to `CN1CC[C@]23c4c5ccc(O)c4O[C@H]2[C@@H](O)C=C[C@H]3[C@H]1C5` [MORPHINE], the values for the 50% effective dose (ED50) in the data set listed under Mus musculus [13], in the data set listed under Mus musculus [14] and in the data set on Mus musculus [15] were 2 to 2.5 mg/kg, 1.7 mg/kg and 12.1 mg/kg, respectively. Also, the outcome in the data set with Mus musculus [16] was inactive.
As for `CC[C@@H]1CN2CCc3c([nH]c4cccc(OC)c34)[C@@H]2C[C@@H]1/C(=C\OC)C(=O)OC`, the ED50 with Mus musculus [2] came to 166 mg/kg. In addition, the Activity result at Mu-type opioid receptor [5] was “Not Active”. In addition, in [7], the Emax was found to be 65%.
In the case of `CC[C@@H]1CN2CC[C@]3(Nc4cccc(O)c4C3=O)[C@@H]2C[C@@H]1/C(=C\OC)C(=O)OC`, the 50% inhibitory concentration (IC50) in [1] was found to be 293 nM. Also, in the data set with Mus musculus [2], the ED50 was 0.18 mg/kg. Further, the figures for the inhibition constant Ki (on Mu-type opioid receptor [3]; in data set [6]; in data set [9]) were 1.4 nM, 6.1 nM and 170 nM, respectively. Besides, on Mu-type opioid receptor [4], the concentration for a half-maximal effect (EC50) worked out at 2 nM. In addition, at Mu-type opioid receptor [5], the Activity result is reported as “Not Active”. For the same compound, the maximal effect (Emax) in data set [7] was determined as 124%.
Take `CC[C@@H]1CN2CC[C@@]3(C(=O)c4c(OC)cccc4N3Cc3ccccc3)[C@@H]2C[C@@H]1/C(=C\OC)C(=O)OC`: the values for the Ki (on Mu-type opioid receptor [3]; in [6]; in [9]) were 249 nM, 258 nM and 136 nM, respectively.
Take `CC1(C)SSC(C)(C)[C@@H](NC(=O)[C@@H](N)Cc2ccc(O)cc2)C(=O)NCC(=O)N[C@@H](Cc2ccccc2)C(=O)N[C@H]1C(=O)O`: the outcome with Mus musculus [17] was inactive.

Values taken from ChEMBL document CHEMBL4428076 (J Med Chem, 2016).
